The test addresses T1, PDGF-receptor beta enzyme comprising the tyrosine kinase domain (Homo sapiens, UniProt P09619).
T1 construct: from amino acid 545 to 1106 of GenBank Access NO: AAA36427
The test can be described thus: Inhibition of PDGF-receptor kinase activity (cell-free, PLC1 peptide, 33P Flashplate). Particulars: PDGF-R kinase activity; for inhibition at 10 µM: compound at 10 uM, read-out: Percent Inhibition @ 10 uM; for IC50: read-out: IC50. In kind it is biochemical. In short, it runs like this:
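The IC50 is the inhibitor level halving kinase activity relative to inhibitor-free wells, measured as 33P captured on a streptavidin-bound biotin-PLC1 peptide. The reaction ran 60 min at 30 °C in pH 8 Tris buffer with 1 mM DTT, 5 μM ATP and the 545–1106 kinase-domain enzyme.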

T1 sequence (P09619 545-1106): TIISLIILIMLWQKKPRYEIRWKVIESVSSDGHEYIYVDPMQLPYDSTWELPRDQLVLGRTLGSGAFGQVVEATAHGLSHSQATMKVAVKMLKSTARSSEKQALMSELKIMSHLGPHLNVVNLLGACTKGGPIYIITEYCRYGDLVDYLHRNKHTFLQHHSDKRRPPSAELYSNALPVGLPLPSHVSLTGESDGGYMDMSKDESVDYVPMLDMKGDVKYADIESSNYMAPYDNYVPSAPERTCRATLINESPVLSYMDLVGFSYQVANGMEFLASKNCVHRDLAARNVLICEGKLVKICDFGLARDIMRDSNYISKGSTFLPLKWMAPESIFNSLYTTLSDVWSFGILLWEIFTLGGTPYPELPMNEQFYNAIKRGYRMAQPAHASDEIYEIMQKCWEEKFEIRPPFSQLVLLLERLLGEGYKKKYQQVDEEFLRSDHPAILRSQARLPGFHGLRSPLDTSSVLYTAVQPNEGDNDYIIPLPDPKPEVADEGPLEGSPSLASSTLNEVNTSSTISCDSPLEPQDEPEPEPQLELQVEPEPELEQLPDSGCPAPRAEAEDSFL

Consider `Fc1cccc(Nc2[nH]nc3c2Cc2cc4c(cc2-3)OCO4)c1` [Compound 96, (2,9-Dihydro-5,7-dioxa-2,3-diaza-cyclopenta[a]-s-indacen-1-yl)-(3-fluoro-phenyl)-amine], for which the inhibition at 10 µM came out at 93% and the half-inhibitory concentration (IC50) amounted to 76 nM.
In the case of `Cc1cccc2c1Cc1c-2n[nH]c1Nc1ccc(F)cc1` [Compound 98, (4-Fluoro-phenyl)-(5-methyl-2,4-dihydro-indeno[1,2-c]pyrazol-3-yl)-amine], the inhibition at 10 µM stood at 26% and the IC50 turned out to be 30700 nM.
For `Cc1cccc2c1Cc1c-2n[nH]c1Nc1cccc(F)c1` [Compound 99, (3-Fluoro-phenyl)-(5-methyl-2,4-dihydro-indeno[1,2-c]pyrazol-3-yl)-amine] the same measures were 87.5% and 1470 nM.
For `Cc1cccc2c1Cc1c-2n[nH]c1Nc1cccnc1` [Compound 100, (5-Methyl-2,4-dihydro-indeno[1,2-c]pyrazol-3-yl)-pyridin-3-yl-amine] the same measures were 81% and 1720 nM.
On to `COc1ccc(OC)c(Nc2[nH]nc3c2Cc2c(C)cccc2-3)c1` [Compound 101, (2,5-Dimethoxy-phenyl)-(5-methyl-2,4-dihydro-indeno[1,2-c]pyrazol-3-yl)-amine], for which the inhibition at 10 µM was found to be 52% and the IC50 is 1090 nM.
For `COc1ccc(Nc2[nH]nc3c2Cc2c(C)cccc2-3)c(OC)c1` [Compound 102, (2,4-Dimethoxy-phenyl)-(5-methyl-2,4-dihydro-indeno[1,2-c]pyrazol-3-yl)-amine] the same measures were 50% and 3400 nM.
For `Cc1cccc2c1Cc1c-2n[nH]c1Nc1cc(F)ccc1F` [Compound 103, (2,5-Difluoro-phenyl)-(5-methyl-2,4-dihydro-indeno[1,2-c]pyrazol-3-yl)-amine] the same measures were 43% and 4100 nM.
Take `Cc1cccc2c1Cc1c-2n[nH]c1Nc1ccc(OC(F)(F)F)cc1` [Compound 104, (5-Methyl-2,4-dihydro-indeno[1,2-c]pyrazol-3-yl)-(4-trifluoromethoxy-phenyl)-amine]: the inhibition at 10 µM amounted to 36% and the IC50 is 666 nM.
For `Cc1cccc2c1Cc1c-2n[nH]c1Nc1ccc(C(F)(F)F)cc1` [Compound 105, (5-Methyl-2,4-dihydro-indeno[1,2-c]pyrazol-3-yl)-(4-trifluoromethyl-phenyl)-amine] the same measures were 69% and 1880 nM.
Consider `CC1c2ccccc2-c2n[nH]c(Nc3ccc(F)cc3)c21` (centres unmarked) [Compound 106, (4-Fluoro-phenyl)-(4-methyl-2,4-dihydro-indeno[1,2-c]pyrazol-3-yl)-amine], for which the inhibition at 10 µM turned out to be 38% and the IC50 was 1050 nM.
With `COc1ccc(Nc2[nH]nc3c2C(C)c2ccccc2-3)cc1` (centres unmarked) [Compound 107, (4-Methoxy-phenyl)-(4-methyl-2,4-dihydro-indeno[1,2-c]pyrazol-3-yl)-amine], the inhibition at 10 µM was 56% and the IC50 amounted to 1270 nM.
Regarding `CC1c2ccccc2-c2n[nH]c(Nc3cccc(F)c3)c21` (centres unmarked) [Compound 108, (3-Fluoro-phenyl)-(4-methyl-2,4-dihydro-indeno[1,2-c]pyrazol-3-yl)-amine], the inhibition at 10 µM was determined as 82% and the IC50 is 300 nM.
For `CC1c2ccccc2-c2n[nH]c(Nc3cccnc3)c21` (centres unmarked) [Compound 109, (4-Methyl-2,4-dihydro-indeno[1,2-c]pyrazol-3-yl)-pyridin-3-yl-amine] the same measures were 83% and 537 nM.
For `COc1ccc(OC)c(Nc2[nH]nc3c2C(C)c2ccccc2-3)c1` (centres unmarked) [Compound 110, (2,5-Dimethoxy-phenyl)-(4-methyl-2,4-dihydro-indeno[1,2-c]pyrazol-3-yl)-amine] the same measures were 80% and 189 nM.
For the compound `COc1ccc(Nc2[nH]nc3c2C(C)c2ccccc2-3)c(OC)c1` (centres unmarked) [Compound 111, (2,4-Dimethoxy-phenyl)-(4-methyl-2,4-dihydro-indeno[1,2-c]pyrazol-3-yl)-amine], the inhibition at 10 µM is 95% and the IC50 is 110 nM.
Regarding `CC1c2ccccc2-c2n[nH]c(Nc3cc(F)ccc3F)c21` (centres unmarked) [Compound 112, (2,5-Difluoro-phenyl)-(4-methyl-2,4-dihydro-indeno[1,2-c]pyrazol-3-yl)-amine], the inhibition at 10 µM turned out to be 72% and the half-inhibitory concentration (IC50) amounted to 83 nM.
For `CC1c2ccccc2-c2n[nH]c(Nc3ccc(OC(F)(F)F)cc3)c21` (centres unmarked) [Compound 113, (4-Methyl-2,4-dihydro-indeno[1,2-c]pyrazol-3-yl)-(4-trifluoromethoxy-phenyl)-amine] the same measures were 60% and 2450 nM.
For `CC1c2ccccc2-c2n[nH]c(Nc3cccc(C(F)(F)F)c3)c21` (centres unmarked) [Compound 114, (4-Methyl-2,4-dihydro-indeno[1,2-c]pyrazol-3-yl)-(3-trifluoromethyl-phenyl)-amine] the same measures were 80% and 1370 nM.
Consider `COc1cc2c(cc1OC)-c1n[nH]c(Nc3cccc(C(=O)O)c3)c1C2` [Compound 115, 3-(6,7-Dimethoxy-2,4-dihydro-indeno[1,2-c]pyrazol-3-ylamino)-benzoic acid], for which the inhibition at 10 µM came to 82% and the IC50 was 3060 nM.
For `Nc1ccc2c(c1)Cc1c-2n[nH]c1Nc1cccc(Br)c1` [Compound 117, N3-(3-Bromo-phenyl)-2,4-dihydro-indeno[1,2-c]pyrazole-3,6-diamine], the inhibition at 10 µM came out at 98% and the IC50 turned out to be 130 nM.
For `COC(=O)c1cccc(Nc2[nH]nc3c2Cc2cc(N)ccc2-3)c1` [Compound 120, 3-(6-Amino-2,4-dihydro-indeno[1,2-c]pyrazol-3-ylamino)-benzoic acid methyl ester] the same measures were 87% and 308 nM.
For `Nc1ccc2c(c1)Cc1c-2n[nH]c1Nc1cccc(F)c1` [Compound 121, N3-(3-Fluoro-phenyl)-2,4-dihydro-indeno[1,2-c]pyrazole-3,6-diamine] the same measures were 92% and 143 nM.
For `COc1cccc(Nc2[nH]nc3c2Cc2cc(N4CCN(C)CC4)ccc2-3)c1` [Compound 123, (3-Methoxy-phenyl)-[6-(4-methyl-piperazin-1-yl)-2,4-dihydro-indeno[1,2-c]pyrazol-3-yl]-amine] the same measures were 87% and 228 nM.
For `Oc1cc2c(cc1O)-c1n[nH]c(Nc3cccc(Br)c3)c1C2` [Compound 125, 3-(3-Bromo-phenylamino)-2,4-dihydro-indeno[1,2-c]pyrazole-6,7-diol], the inhibition at 10 µM is 71% and the IC50 is 3440 nM.
For `c1cncc(Nc2[nH]nc3c2Cc2cc4c(cc2-3)OCO4)c1` [Compound 126, (2,9-Dihydro-5,7-dioxa-2,3-diaza-cyclopenta[a]-s-indacen-1-yl)-pyridin-3-yl-amine] the same measures were 65% and 176 nM.
Turning to `COC(=O)c1cccc(Nc2[nH]nc3c2Cc2cc4c(cc2-3)OCO4)c1` [Compound 127, 3-(2,9-Dihydro-5,7-dioxa-2,3-diaza-cyclopenta[a]-s-indacen-1-ylamino)-benzoic acid methyl ester], the inhibition at 10 µM was 89% and the IC50 is 421 nM.
Consider `COc1cccc(Nc2[nH]nc3c2Cc2cc(OCCCN4CCOCC4)c(OC)cc2-3)c1` [Compound 131, [7-Methoxy-6-(3-morpholin-4-yl-propoxy)-2,4-dihydro-indeno[1,2-c]pyrazol-3-yl]-(3-methoxy-phenyl)-amine], for which the inhibition at 10 µM turned out to be 97% and the IC50 amounted to 13 nM.
As for `COCCCOc1ccc2c(c1)Cc1c-2n[nH]c1Nc1cccc(Cl)c1` [Compound 135, (3-Chloro-phenyl)-[6-(3-methoxy-propoxy)-2,4-dihydro-indeno[1,2-c]pyrazol-3-yl]-amine], the inhibition at 10 µM was 87% and the IC50 stood at 202 nM.
For `COCCCOc1ccc2c(c1)Cc1c-2n[nH]c1Nc1ccc(F)cc1` [Compound 136, (4-Fluoro-phenyl)-[6-(3-methoxy-propoxy)-2,4-dihydro-indeno[1,2-c]pyrazol-3-yl]-amine] the same measures were 64.5% and 1330 nM.
For `COCCCOc1ccc2c(c1)Cc1c-2n[nH]c1Nc1cccc(C(=O)OC)c1` [Compound 137, 3-[6-(3-Methoxy-propoxy)-2,4-dihydro-indeno[1,2-c]pyrazol-3-ylamino]-benzoic acid methyl ester] the same measures were 71% and 2110 nM.
For `COCCCOc1ccc2c(c1)Cc1c-2n[nH]c1Nc1cccc(F)c1` [Compound 138, (3-Fluoro-phenyl)-[6-(3-methoxy-propoxy)-2,4-dihydro-indeno[1,2-c]pyrazol-3-yl]-amine] the same measures were 79.5% and 301 nM.
As for `COCCCOc1ccc2c(c1)Cc1c-2n[nH]c1Nc1cccc(OC)c1` [Compound 139, (3-Methoxy-phenyl)-[6-(3-methoxy-propoxy)-2,4-dihydro-indeno[1,2-c]pyrazol-3-yl]-amine], the inhibition at 10 µM amounted to 80% and the half-maximal inhibitory concentration (IC50) came to 98.2 nM.
For `COCCCOc1ccc2c(c1)Cc1c-2n[nH]c1Nc1cccc(Br)c1` [Compound 141, (3-Bromo-phenyl)-[6-(3-methoxy-propoxy)-2,4-dihydro-indeno[1,2-c]pyrazol-3-yl]-amine] the same measures were 83.5% and 319 nM.
With `COCCCOc1ccc2c(c1)Cc1c-2n[nH]c1Nc1cccnc1` [Compound 142, [6-(3-Methoxy-propoxy)-2,4-dihydro-indeno[1,2-c]pyrazol-3-yl]-pyridin-3-yl-amine], the inhibition at 10 µM turned out to be 82.5% and the IC50 came to 453 nM.
